According to the supplement of paper PMC10307832:

Columns and labels:
Assay in all cases: relative viability (nuclei count vs DMSO), 5 days (fraction); higher = more cells survive
AT-7519 + AZD7762 = compound: O=C(NC1CCNCC1)c1n[nH]cc1NC(=O)c1c(Cl)cccc1Cl [AT-7519] + NC(=O)Nc1cc(-c2cccc(F)c2)sc1C(=O)N[C@H]1CCCNC1 [AZD7762] (partner 0.2 µM)
In short: (§1)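 For relative viability, nuclei counts in treated wells were divided by those in vehicle wells. Lung cancer cell lines had been pin-tool dosed in 1536-well plates the day after seeding and cultured for 5 days, then fixed and stained in one step (final 0.05% Triton X-100, 1% formaldehyde, 1 ug/ml Hoechst) and imaged at 4×. Doses were one drug alone or a fixed anchor-drug dose plus five library-drug doses (not always all listed) in √10 steps, and values are duplicate-plate medians.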

[1] = compound: C1=CC2=C(C=C(C(=C2N=C1)O)N=NC3=CC4=C(C=C3)C=C(C=C4)S(=O)(=O)O)S(=O)(=O)O + CCNC(=O)c1noc(-c2cc(C(C)C)c(O)cc2O)c1-c1ccc(CN2CCOCC2)cc1 [Luminespib] (partner 0.01 µM)
In short: as §1

AT-7519 + OSI-027 = compound: O=C(NC1CCNCC1)c1n[nH]cc1NC(=O)c1c(Cl)cccc1Cl [AT-7519] + COc1cccc2cc(-c3nc([C@H]4CC[C@H](C(=O)O)CC4)n4ncnc(N)c34)[nH]c12 [OSI-027] (partner 0.5 µM)
In short: as §1

[2] = compound: C1=CC2=C(C=C(C(=C2N=C1)O)N=NC3=CC4=C(C=C3)C=C(C=C4)S(=O)(=O)O)S(=O)(=O)O + CS(=O)(=O)N1CCN(Cc2cc3nc(-c4cccc5[nH]ncc45)nc(N4CCOCC4)c3s2)CC1 [Pictilisib] (partner 1 µM)
In short: as §1

Cell Line | relative viability (AT-7519 + AZD7762; first compound 0.01 µM) | relative viability (AT-7519 + AZD7762; first compound 0.03162 µM) | relative viability (AT-7519 + AZD7762; first compound 0.3162 µM) | relative viability (AT-7519 + AZD7762; first compound 1 µM) | relative viability ([1]; first compound 0.08 µM) | relative viability ([1]; first compound 0.253 µM) | relative viability ([1]; first compound 0.8 µM) | relative viability ([1]; first compound 2.53 µM) | relative viability ([1]; first compound 8 µM) | relative viability (AT-7519 + OSI-027; first compound 0.01 µM) | relative viability (AT-7519 + OSI-027; first compound 0.03162 µM) | relative viability (AT-7519 + OSI-027; first compound 0.3162 µM) | relative viability (AT-7519 + OSI-027; first compound 1 µM) | relative viability ([2]; first compound 0.08 µM) | relative viability ([2]; first compound 0.253 µM) | relative viability ([2]; first compound 0.8 µM) | relative viability ([2]; first compound 2.53 µM) | relative viability ([2]; first compound 8 µM)
LU99A | 0.329 | 0.29 | 0.538 | 0.342 | 0.234 | 0.35 | 0.216 | 0.228 | 0.27 | 0.315 | 0.248 | 0.223 | 0.299 | 0.391 | 0.314 | 0.251 | 0.297 | 0.37
LXF-289 | 1.1 | 1.14 | 1.1 | 1.23 | 0.788 | 0.645 | 0.73 | 0.681 | 0.642 | 0.758 | 0.666 | 0.706 | 0.737 | 0.874 | 0.684 | 0.73 | 0.793 | 0.8
NCI-H23 | 0.258 | 0.262 | 0.242 | 0.309 | 0.202 | 0.21 |  | 0.194 | 0.209 | 0.475 | 0.521 | 0.664 | 0.396 | 0.516 | 0.514 | 0.365 | 0.45 | 0.585
NCI-H322M | 0.534 | 0.533 | 0.578 | 0.639 | 1.04 | 0.828 | 0.859 | 0.847 | 1.12 | 0.539 | 0.521 | 0.422 | 0.428 | 0.505 | 0.473 | 0.444 | 0.442 | 0.524
NCI-H358 | 0.423 | 0.558 | 0.521 | 0.37 | 0.342 | 0.382 | 0.307 | 0.309 | 0.214 | 0.83 | 0.676 | 0.527 | 0.194 | 0.37 | 0.35 | 0.323 | 0.356 | 0.363
NCI-H441 | 1.01 | 1.16 | 1.2 | 1.02 | 0.454 | 0.323 | 0.428 | 0.363 | 0.278 | 0.679 | 0.603 | 0.582 | 0.408 | 0.475 | 0.49 | 0.37 | 0.528 | 0.498
NCI-H460 | 0.665 | 0.653 | 1.02 | 0.693 | 0.0298 | 0.032 | 0.13 | 0.022 | 0.0231 | 0.906 | 0.686 | 0.288 | 0.0567 | 0.356 | 0.366 | 0.336 | 0.344 | 0.104
NCI-H596 | 1.22 | 1.06 | 0.982 | 0.938 | 1.16 | 1.09 | 1.05 | 1.11 | 0.832 | 0.723 | 0.628 | 0.644 | 0.754 | 0.408 | 0.385 | 0.377 | 0.428 | 0.417
NCI-H647 | 0.353 | 0.481 | 0.552 | 0.361 | 0.138 | 0.241 | 0.215 | 0.276 | 0.135 | 0.538 | 0.675 | 0.676 | 0.471 | 0.357 |  | 0.436 | 0.505 | 0.394
NCI-H650 | 1.07 | 0.953 | 0.887 | 1.29 | 0.876 | 0.874 | 0.691 | 0.889 | 0.76 | 0.529 | 0.496 | 0.498 | 0.711 | 0.907 | 0.859 | 0.909 | 0.92 | 0.833
NCI-H727 | 0.571 | 0.494 | 0.604 | 0.414 | 0.478 | 0.45 | 0.327 | 0.346 | 0.359 | 0.68 | 0.632 | 0.517 | 0.408 | 0.591 | 0.311 | 0.217 | 0.358 | 0.482
NCI-H838 | 0.925 | 0.949 | 0.936 | 0.861 | 0.294 | 0.281 | 0.267 | 0.24 | 0.279 | 0.345 | 0.39 | 0.276 | 0.127 | 0.42 | 0.42 | 0.437 | 0.417 | 0.518
NCI-H1355 | 0.71 | 0.703 | 0.902 | 0.907 | 0.737 | 0.735 | 0.646 | 0.68 | 0.775 | 0.407 | 0.471 | 0.374 | 0.374 | 0.423 | 0.433 | 0.401 | 0.473 | 0.441
NCI-H1395 | 0.359 | 0.391 | 0.425 | 0.348 | 0.851 | 0.859 | 0.806 | 0.701 | 0.786 | 0.659 | 0.618 | 0.525 | 0.62 | 0.667 | 0.607 | 0.578 | 0.575 | 0.602
NCI-H1437 | 0.989 | 1.09 | 1.07 | 0.982 | 1.21 | 1.11 | 1.13 | 1.16 | 0.571 | 0.755 | 0.938 | 0.824 | 0.645 | 0.489 | 0.419 | 0.47 | 0.507 | 0.56
NCI-H1651 | 0.531 | 0.49 | 0.536 | 0.561 | 1.25 | 0.869 | 0.877 | 0.86 | 0.836 | 0.764 | 0.734 | 0.598 | 0.59 | 0.777 | 0.517 | 0.489 | 0.593 | 0.563
NCI-H1666 | 0.852 | 0.818 | 0.917 | 0.863 | 1.09 | 0.912 | 1.07 | 0.978 | 0.596 | 0.825 | 0.82 | 0.838 | 0.652 | 0.459 | 0.383 | 0.358 | 0.42 | 0.479
